Where “and” joins values, the source holds several entries; their conditions need not be identical. Equal values may be shown once. Marks after values point to notes of the source that are not given here.

Eight compounds from patent EP0086092A2, “Antifungal compositions” (priority 1982, dated 1983) can be followed below.

What all share (assay): disc diffusion, zone of inhibition on seeded agar plates
What all share (format): cell-based
(Agar diffusion results depend on both activity and mobility in agar.)

One assay deals with Candida albicans B 311. The following applies: 16-18 h; for Zone Size / Zone Size B 311: 28-37°C; for Zone Size Sabouarud Agar / Zone Size YNB agar: Table II, 37°C; for Zone Size YNB agar: lysine. How it is done:
The antifungal activity of aculeacin A and the compositions of aculeacin A and fatty acids was measured by disc diffusion.
The effects of a number of fatty acids on the antifungal activity of aculeacin A were determined by utilizing seeded plates of Candida albicans B 311 in yeast nitrogen base (YNB) agar (Difco) with glucose as the carbon source. A composition containing one unit by weight of aculeacin A and 5 units of fatty acid or the sodium salt thereof was spotted on the seeded plates and the size of the zone of inhibition after 16-18 hours incubation at 28-37 °C was measured.
Additional fatty acids were tested to determine , if they increased the intrinsic activity of aculeacin A against C. albicans B 311 utilizing seeded plates of YNB agar (Difco) with lysine as the carbon source and seeded plates of Sabouarud dextrose agar (Difco). Compositions containg one µg of aculeacin A and various amounts of the fatty acid was spotted on the seeded plates and the size of the zone of inhibition after 16-18 hours incubation at 37 °C was measured.
The antifungal effects of compositions containing a single amount of oleic acid as the sodium salt while varying the amounts of aculeacin A were determined by utilizing seeded plates of Candida albicans B 311 in Sabouarud dextrose agar and measuring the zone of inhibition after 16-18 hours incubation at 28-37°C.
(§1) The antifungal effects of compositions containing a single amount of aculeacin A while varying the amounts. of oleic acid as the sodium salt were determined by utilizing seeded plates of Candida albicans strains B 311, BC 759 and B 3153A and measuring the zone of inhibition after 16-18 hours at 28-37°C. This test was also performed with linoleic acid and linolenic acid.
(§2) The seeded plates of Candida albicans strains B 311, BC 759, and B 3153A were prepared by inoculating 50 ml of trypticase soy broth (BBL) with one ml of the preserved frozen culture and incubating the inoculum at 37°C for 7 hours on a rotary shaker. Two milliliters of this culture were used to inoculate one liter of Sabouarud dextrose agar (Difco) at 50°C and 15 milliliters of the resultant medium poured into 150 mm petri-dishes.

The next assay relates to Candida albicans BC 759. Conditions: Table IV-a; aculeacin A 0.40 µg, oleic acid 0 µg; 16-18 h, 28-37°C. How it is done:
(§3) The antifungal activity of aculeacin A and the compositions of aculeacin A and fatty acids was measured by disc diffusion. Potentiation of antifungal activity was examined by three different methods employing: (1) a single concentration of aculeacin A and a single concentration of known fatty acids; '(2) various concentrations of aculeacin A with a single concentration of individual fatty acids; and (3) various concentrations of fatty acids with a single concentration of aculeacin A. The antifungal activities of aculeacin A and the fatty acids were separately checked as controls.
as §1, §2

The subject of a further assay is Candida albicans B 3153A. The following applies: Table IV-a; aculeacin A 0.40 µg, oleic acid 0 µg; 16-18 h, 28-37°C. How it is done: as §3, §1, §2
Setting [1] is: Sabouarud dextrose agar, aculeacin A 0 µg, fatty acid 250 µg alone.
The mark [2] stands for this setting: Sabouarud dextrose agar, aculeacin A 0 µg, fatty acid 500 µg alone.
The mark [3] stands for this setting: Sabouarud dextrose agar, aculeacin A 0 µg, fatty acid 1000 µg alone.
The mark [4] stands for this setting: Sabouarud dextrose agar, composition of aculeacin A 1 µg + fatty acid 250 µg.
[5] abbreviates: Sabouarud dextrose agar, composition of aculeacin A 1 µg + fatty acid 500 µg.
Setting [6] is: Sabouarud dextrose agar, composition of aculeacin A 1 µg + fatty acid 1000 µg.
Where [7] appears, read: YNB agar, aculeacin A 0 µg, fatty acid 250 µg alone.
Setting [8] is: YNB agar, aculeacin A 0 µg, fatty acid 500 µg alone.
Where [9] appears, read: YNB agar, aculeacin A 0 µg, fatty acid 1000 µg alone.
The mark [10] stands for this setting: YNB agar, composition of aculeacin A 1 µg + fatty acid 250 µg.
[11] abbreviates: YNB agar, composition of aculeacin A 1 µg + fatty acid 500 µg.
The mark [12] stands for this setting: YNB agar, composition of aculeacin A 1 µg + fatty acid 1000 µg.
The mark [13] stands for this setting: Table I, YNB agar, glucose as carbon source, composition of 1 unit by weight aculeacin A + 5 units fatty acid.

For the compound aculeacin A [reference compound], the “Zone Size” value in the assay with Candida albicans B 311 (Table I, YNB agar, glucose as carbon source, aculeacin A alone, no fatty acid) is 15 mm; in the assay with Candida albicans B 311 (Table III, Sabouarud dextrose agar, aculeacin A 0.312 µg, oleic acid 0 µg) it was “trace”; with Candida albicans B 311 (Table III, Sabouarud dextrose agar, aculeacin A 0.625 µg, oleic acid 0 µg), 10 mm; in the assay on Candida albicans B 311 (Table III, Sabouarud dextrose agar, aculeacin A 1.25 µg, oleic acid 0 µg) it was 14-16 mm; in the assay with Candida albicans B 311 (Table III, Sabouarud dextrose agar, aculeacin A 2.5 µg, oleic acid 0 µg), 19 mm. Moreover, in the assay with Candida albicans B 311 (Sabouarud dextrose agar, aculeacin A 1 µg, no fatty acid), the “Zone Size Sabouarud Agar” value is 13 mm and 15 mm. Besides, the “Zone Size YNB agar” value in the assay on Candida albicans B 311 (YNB agar, aculeacin A 1 µg, no fatty acid) was 15 mm and 16 mm. Also, the “Zone Size B 311” value in the assay with Candida albicans B 311 (Table IV-a, aculeacin A 0.40 µg, oleic acid 0 µg) is recorded as 10 mm; in the assay on Candida albicans B 311 (Tables IV-b, IV-c, aculeacin A 0.625 µg, fatty acid 0 µg) it was 16 mm. In addition, the “Zone Size BC 759” value with Candida albicans BC 759 amounted to 13 mm. In the assay with Candida albicans B 3153A, the “Zone Size B 3153-A” value amounted to 12 mm.

On to `CCCCC/C=C\C/C=C\C/C=C\C/C=C\CCCC(=O)O` [Arachidonic Acid], for which the “Zone Size Sabouarud Agar” value was 0 mm in the assay on Candida albicans B 311 (setting [1]); 0 mm in the assay with Candida albicans B 311 (setting [2]); 0 mm with Candida albicans B 311 (setting [3]); 20* mm in the assay on Candida albicans B 311 (setting [4]); 20* mm in the assay with Candida albicans B 311 (setting [5]); 20* mm in the assay with Candida albicans B 311 (setting [6]). Besides, the “Zone Size YNB agar” value came to 0 mm with Candida albicans B 311 (setting [7]); 0 mm in the assay on Candida albicans B 311 (setting [8]); 0 mm in the assay on Candida albicans B 311 (setting [9]); 20 mm with Candida albicans B 311 (setting [10]); 20 mm in the assay with Candida albicans B 311 (setting [11]); 26 mm in the assay on Candida albicans B 311 (setting [12]).

For `CC/C=C\C/C=C\C/C=C\CCCCCCCC(=O)O` [Linolenic Acid], in the assay on Candida albicans B 311 (setting [13]), the “Zone Size” value came out at 22 mm. Besides, the “Zone Size B 311” value with Candida albicans B 311 (Tables IV-b, IV-c, aculeacin A 0 µg, fatty acid 28.1 µg alone) is reported as 0 mm; in the assay with Candida albicans B 311 (Tables IV-b, IV-c, aculeacin A 0 µg, fatty acid 56.2 µg alone), 0 mm; in the assay on Candida albicans B 311 (Tables IV-b, IV-c, aculeacin A 0 µg, fatty acid 112.5 µg alone), 0 mm; with Candida albicans B 311 (Tables IV-b, IV-c, aculeacin A 0.625 µg + fatty acid 28.1 µg) it was 20 mm; in the assay on Candida albicans B 311 (Tables IV-b, IV-c, aculeacin A 0.625 µg + fatty acid 56.2 µg) it was 19 mm; with Candida albicans B 311 (Tables IV-b, IV-c, aculeacin A 0.625 µg + fatty acid 112.5 µg), 19 mm.

For the compound `CCCCCCCCCCCC(=O)O` [Lauric Acid], the “Zone Size” value with Candida albicans B 311 (setting [13]) came to 22 mm.

With `CCCCCCCCCCCCCCCCCC(=O)O` [Stearic Acid], the “Zone Size” value with Candida albicans B 311 (setting [13]) was found to be 15 mm.

For `CCCCCCCCCC(=O)O` [Decanoic Acid], in the assay on Candida albicans B 311 (setting [13]), the “Zone Size” value was determined as 17 mm.

For the compound `CCCCCCCCCCCCCCCCCCCCCC(=O)O` [Behenic Acid], the “Zone Size Sabouarud Agar” value is on record as 0 mm in the assay with Candida albicans B 311 (setting [1]); 0 mm in the assay on Candida albicans B 311 (setting [2]); 0 mm in the assay on Candida albicans B 311 (setting [3]); 15 mm with Candida albicans B 311 (setting [4]); 14 mm with Candida albicans B 311 (setting [5]); 20 mm in the assay on Candida albicans B 311 (setting [6]). Also, the “Zone Size YNB agar” value in the assay with Candida albicans B 311 (setting [7]) was determined as 0 mm; in the assay on Candida albicans B 311 (setting [8]), 0 mm; with Candida albicans B 311 (setting [9]) it was 0 mm; in the assay on Candida albicans B 311 (setting [10]), 14 mm; in the assay on Candida albicans B 311 (setting [11]), 14 mm; in the assay with Candida albicans B 311 (setting [12]), 15 mm.

For the compound `CCCCCCCC/C=C\CCCCCCCCCCCC(=O)O` [Erucic Acid], the “Zone Size Sabouarud Agar” value with Candida albicans B 311 (setting [1]) was 0 mm; with Candida albicans B 311 (setting [2]), 0 mm; in the assay with Candida albicans B 311 (setting [3]) it was 0 mm; in the assay on Candida albicans B 311 (setting [5]), 17 mm; with Candida albicans B 311 (setting [6]), “Trace”. Further, the “Zone Size YNB agar” value in the assay on Candida albicans B 311 (setting [7]) was 0 mm; in the assay with Candida albicans B 311 (setting [8]), 0 mm; in the assay with Candida albicans B 311 (setting [9]) it was 0 mm; with Candida albicans B 311 (setting [11]), 15 mm and 17 mm; with Candida albicans B 311 (setting [12]), 15 mm.
